# Measured values from patent publication US20090239285A1, “TANDEM REAPEAT DNA CONSTRUCTS PRODUCING PROTEINS THAT ATTACK PLANT PATHOGENIC VIRUSES, FUNGI, AND BACTERIA BY DISRUPTING TRANSCRIPTION FACTORS ESSENTIAL FOR REPLICATION THEREOF IN PLANTS” (priority 2008, published 2009).
# “Also recorded” adds a separate entry of the source. Like-named read-outs stand apart in the source and are kept apart here.
# How the values were obtained:
# [1] = biological target: T1, Zn(HIV1-F1) zinc finger peptide (N-terminal CCHC region of the HIV-LA1 gag polyprotein) (Human immunodeficiency virus type 1 group M subtype B, UniProt P03348); test: NMR studies of ligand binding by a zinc finger peptide from HIV-1; details: for binding to Zn(HIV1-F1): NMR spectroscopy, titration and NOESY
# T1 construct: corresponds to the N-terminal CCHC region of the HIV-LA1 gag polyprotein (amino acids 390-470); made in house; host or cells: chemical synthesis (synthetic peptide)
# Source text: The interaction between two of the ligands of this invention (Fusaric acid and picolinic acid) and their binding by a Zinc Finger Peptide from HIV-1 containing a zinc finger motif were studied by NMR spectroscopy (FIGS. 16, and 16.1-4).
# The peptide sequence […], corresponds to the N-terminal CCHC region of the HIV-LA1 gag polyprotein (amino acids 390-470). The peptide containing the complex of zinc atom bound to the zinc finger domain of the peptide was named: Zn (HIV1-F1).
# A synthetic oligonucleotide with sequence corresponding to a region of HIV-1 psi-packaging signal, d (ACGCC) was complexed with the peptide (South and Summers, 1993).Fusaric Acid [[…]] was denoted FSR-488 and picolinic acid [2-pyridine carboxylic acid] was denoted PCL-016. Interactions of FSR-488 and PCL-016 with the zinc finger peptide containing Zn [Zn(HIV1-F1)] were studied by NMR spectroscopy. […] Titration experiments with each of the two molecules caused shifts in the ^1H resonances of Zn(HIV1-F1) that are similar to those observed when the peptide binds analogs of its natural substrate. Two dimensional NOE correlation spectroscopy (NOESY) of the solution containing Zn(HIV1-F1) and FSR-488 gave cross peaks at frequencies that are consistent with contacts between FSR-488 and hydrogen nuclei in the hydrophobic cleft of the peptide.
# A sample containing peptide (1.63 mM) and Zn^2+ (2 mM) was titrated with a solution of FSR-488. The experiment was monitored by one dimensional ^1H NMR spectroscopy. Under conditions in which the free zinc in the buffer was minimized, titrations with FSR-488 were conducted. Addition of FSR-488 yielded spectral shifts in the spectrum of the peptide (FIGS. 16, and 16.1-4). […] This experimental finding and conclusions led the inventors to run a second 2D NOESY experiment, this time at the higher concentration of FSR-488.
# The NOESY spectrum at the high concentration of [FSR-488]. was considerable different than that measured at low concentrations of [FSR-488]. […] Interpretations for these assignments are presented in detailed below.
# [2] = biological target: T2, recombinant MPS-1 (Homo sapiens, UniProt P42677); test: Gel shift assay and radioactive Zn65 release from recombinant MPS-1; format: biochemical; details: for zinc dependent binding of recombinant MPS-1 to DNA: gel shift assays
# T2 construct: made in house
# Source text: MPS-1 is a ubiquitous tumor marker and cell growth stimulator and is described in detail in the inventors' U.S. Pat. No. 5,243,041. MPS-1 has one zinc finger domain of the type CCCC. […] This is detected by a change in the electrophoretic mobility of MPS-1 under non-denaturing conditions. These experiments indicate that picolinic acid and derivatives should remove zinc and denature various types of zinc finger, zinc ring proteins, or other types of ZF motifs whether known or heretofore undiscovered, including animal or plant viral proteins such as nucleocapsid proteins of retrovirus or the nucleocapsid proteins of Geminivirus. Furthermore, the inventors have determined that any chemical compound, whether known or heretofore undiscovered, that will remove the zinc (or other metal) and denature the proteins or that will form a ternary complex (protein-zinc-chelator) can be effective as an antiviral agent, with nontoxic effects, provided that the agent conforms with certain specific structural requirements.
# [3] = tested on: virus-infected host cells (HSV-1, HSV-2, HIV-1, Hepatitis C); test: Fate of virus-infected host cells after treatment; format: cell-based; details: for fate of virus and host cells: HIV-1, Hepatitis C and numerous other viruses
# Source text: Because DnaJ proteins are zinc finger proteins, these proteins can be neutralized and render non-functional by using picolinic acid and derivatives thereof. DnaJ is essential for protein-related cellular functions in both non-infected normal plant and animal cells. […] In contrast, in virally infected cells, picolinic acid and derivatives thereof have pronounced toxic effects which may include suppression of DnaJ proteins. Virally infected cells were killed by picolinic acid and derivatives thereof by apoptosis. In plant cells, this process is denoted as PCD.
# APOPTOSIS. Apoptosis is a morphological pattern of cell injury and an important mode of cell death (Robbins, Pathological Basis of Disease, 1999, 6th Ed). Apoptosis shares and overlaps common mechanisms with necrosis. […] This form of cell death is designed to eliminate defective, unwanted and damaged cells. For example, the inventors have shown that cells infected by Herpes Simplex Virus 1 (HSV; labialis) and HSV-2 genitalis are destroyed together with the host cells that they infected by apoptosis when exposed to pyridine carboxylates (Fernandez-Pol, Anticancer Res. 2002). […] Thus, the inventors believes that when host cells of animals or plants are infected by pathogenic viruses, unless the treatment is extremely quickly, the host cells and the virus will be destroyed. In fact, host cells defective, mutated, and reservoirs for the novo synthesis of viruses are unwanted host cells and must be eliminated in many instances to allow the survival of the organism.
# [4] = tested on: HSV-1; details: in tissue culture and in animals; cited from earlier work
# [5] = tested on: HSV-2; details: in tissue culture and in animals; cited from earlier work
# [6] = tested on: Orobanche ramose; details: Arabidopsis thaliana pre-treated with FU; cited from earlier work
# [7] = tested on: Arabidopsis thaliana; details: in vivo; cited from earlier work
# [8] = tested on: Common ornamental plant cells infected by viruses; test: Treatment of virus-infected ornamental plants with antiviral agents; details: viral strains not determined
# [9] = tested on: virally-transformed cells; details: further incubation / longer exposure, all transformed cells; cited from earlier work
# [10] = tested on: NRK cells; details: cells treated with picolinic acid; cited from earlier work
# [11] = tested on: SV40 transformed BALB-3T3 cells; details: cited from earlier work
# [12] = tested on: Rice suspension cells and leaves; details: cited from earlier work; for hypersensitive response (HR): rice
# [13] = tested on: Arabidopsis thaliana; details: cited from earlier work
# [14] = tested on: iron incorporation into cells; details: cited from earlier work
# [15] = tested on: normal cells (NRK, BALB 3T3, WI-348); details: cited from earlier work
# [16] = tested on: normal cells (NRK, BALB 3T3, WI-348); test: Control of growth by picolinic acid in normal cells; details: normal animal cells
# Source text: Cells transformed (made cancerous) by different viruses that contain ZFP respond differently to picolinic acid. […] Numerous transformed cell lines (Fernandez-Pol, Proc. Natl. Acad. Sci. USA, 74:2889-2893, 1977) were exposed to PA and the points of arrest varied. […] Two important facts emerged from studies with transformed cell lines.
# [17] = tested on: mammalian retroviruses; details: millimolar concentrations, in vitro; cited from earlier work
# [18] = tested on: Mammalian rotaviruses; details: millimolar concentrations, in vitro; cited from earlier work
# [19] = tested on: tomato spotted wilt virus; details: cited from earlier work
structure (smiles),measurement,setting,value
"CCCCc1ccc(C(=O)O)nc1 [Fusaric acid, 5-butyl picolinic acid]",binding to Zn(HIV1-F1),[1],bind Zn(HIV1-F1) at a hydrophobic cleft
same,binding in one dimensional 1H NMR titration,"[1]; peptide 1.63 mM, Zn2+ 2 mM, free zinc minimized",competitively binds both Zn^2+ and the Zn^2+/Peptide complex
same,removal of zinc from CCCC zinc finger of MPS-1,[2],remove radioactive Zn65; also recorded: remove zinc
same,zinc dependent binding of recombinant MPS-1 to DNA,[2],inhibit
same,fate of virus and host cells,[3],Death by apoptosis
same,efficacy against viral infection,[4],effective
same,efficacy against viral infection,[5],effective
same,germination of parasite,[6],inhibited
same,concentration eliciting plant defense responses without toxic effects,[7],100 nM
same,concentration reducing root growth and inducing membrane hyperpolarization then depolarization,[7],> 500 µM
same,outcome of treatment of virus-infected ornamental plants,[8],positive results
"O=C(O)c1ccccn1 [Picolinic acid, 2-pyridine carboxylic acid]",binding to Zn(HIV1-F1),[1],bind Zn(HIV1-F1) at a hydrophobic cleft
same,removal of zinc from CCCC zinc finger of MPS-1,[2],remove radioactive Zn65; also recorded: remove zinc
same,zinc dependent binding of recombinant MPS-1 to DNA,[2],inhibit
same,fate of virus and host cells,[3],Death by apoptosis
same,fate of virally infected cells,[3]; virally infected cells,killed
same,toxicity in transformed cells,[9],cytotoxicity and cell death; also recorded: cell death by apoptosis
same,potency of prostaglandin E1 in elevating cyclic AMP,[10],two to five times more potent
same,mitochondrial effect,[11]; 3 mM picolinic acid,released cytochrome c
same,cell death,[12]; Rice suspension cells and leaves,apoptosis
same,reactive oxygen species (ROS),"[12]; rice suspension cells, Ca2+-dependent",induced reactive oxygen species (ROS)
same,hypersensitive response (HR),[12],elicits hypersensitive-like response
same,hypersensitive response (HR),[12]; listed as Alpha-picolinic acid,can elicit the hypersensitive response (HR)
same,"marker defense genes PR-1, PR-2 and PDF1.2",[13]; dose-dependent and time dependent,all induced
same,hypersensitive response (HR),[13]; including oxidative burst and cell death,induced HR
same,incorporation of iron into the cells,[14],inhibits incorporation of iron
same,removal of radioiron from the cells,[14],effectively removes radioiron
same,phase of cell cycle arrest,[15]; Normal rat kidney (NRK) cells,arrested in G1
same,toxicity in normal cells,[15],no toxic effects
same,suppression of DnaJ-like proteins,[16],did not lead to the suppression
same,outcome of treatment of virus-infected ornamental plants,[8],positive results
O=C(O)CN(CCOCCOCCN(CC(=O)O)CC(=O)O)CC(=O)O [EGTA],"viral integrity, measured by release of reverse transcriptase",[17],partial disintegration of viral membranes
same,viral integrity,[18],partial disintegration of the viral membranes
NC(=O)c1ncn([C@@H]2O[C@H](CO)[C@@H](O)[C@H]2O)n1 [Ribavirin],use against virus,[19]; tomato and tobacco plants,successfully used
same,host in which most efficient,[19]; tomato versus tobacco,most efficient in tomato plants
NC(=O)c1cccnc1 [Nicotinamide],effect on cell growth or apoptosis,[11]; at 48h,no effect
same,morphology,[11],flatten
O=C(O)CN(CCN(CC(=O)O)CC(=O)O)CC(=O)O [EDTA],"viral integrity, measured by release of reverse transcriptase",[17],partial disintegration of viral membranes
same,viral integrity,[18],partial disintegration of the viral membranes
